Test results published in BindingDB's records for doi:10.7270/Q26T0K34 (The Scripps Research Institute Molecular Screening Center, 2010).
pIC50: −log10 of the molar value.

Target: Peroxisome proliferator-activated receptor gamma (Homo sapiens, UniProt P37231)
Experiment: PubChem AID 463257

Sequence of Peroxisome proliferator-activated receptor gamma (P37231 whole entry, looked up): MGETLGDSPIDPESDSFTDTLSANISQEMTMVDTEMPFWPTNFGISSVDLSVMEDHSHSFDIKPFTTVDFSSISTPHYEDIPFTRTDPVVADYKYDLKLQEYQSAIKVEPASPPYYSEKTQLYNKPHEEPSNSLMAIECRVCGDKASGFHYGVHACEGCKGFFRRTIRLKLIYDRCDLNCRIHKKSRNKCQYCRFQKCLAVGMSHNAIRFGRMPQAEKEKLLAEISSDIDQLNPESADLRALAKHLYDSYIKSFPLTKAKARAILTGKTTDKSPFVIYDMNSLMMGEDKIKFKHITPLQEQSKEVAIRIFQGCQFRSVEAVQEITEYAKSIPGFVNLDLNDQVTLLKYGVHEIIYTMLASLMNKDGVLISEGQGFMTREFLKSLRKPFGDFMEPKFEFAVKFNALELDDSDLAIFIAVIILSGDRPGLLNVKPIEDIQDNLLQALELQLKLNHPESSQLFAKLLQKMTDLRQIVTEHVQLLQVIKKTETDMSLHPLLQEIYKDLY

## COc1ccc(-n2cc(O)c(-c3nc(-c4ccccc4)cs3)c2N)cc1 [5-amino-1-(4-methoxyphenyl)-4-(4-phenyl-1,3-thiazol-2-yl)-2H-pyrrol-3-one]
  pIC50: 4.61
